# Laboratory results: patent publication US20220162215A1, “COMPOSITIONS AND METHODS OF USING THE SAME FOR TREATMENT OF NEURODEGENERATIVE AND MITOCHONDRIAL DISEASE” (MITOKININ, INC., priority 2019, published 2022)
# Where two headings read alike, the source gives them in different places.
# What was measured:
# HeLa MKYP cells [1] = experiment: Toxicity / cell death measured by DAPI staining (take-up); format: cell-based; settings: 50 μM; for Toxicity (% positive for DAPI take-up @ 50 μM): Table 1
# Description: H2O2 treatment was performed as a control for cell death as measured by DAPI staining.
# (§1) Briefly, HeLa MKYP cells were plated at 10,000 cells/well in 96 well plates along with compounds at various concentrations. Following 16 hrs of incubation, cells were treated with 1 uM FCCP/oligomycin for 6 hours, then analyzed via FACS for the presence of mitochondria in lysosomes (as determined by an emissions spectrum shift from the pH-sensitive mtKeima tag).
# HeLa MKYP cells [2] = experiment: Human mitophagy assay (HeLa MKYP, mtKeima FACS, FCCP/oligomycin); format: cell-based; settings: for Potency at 1 μM F/O toxin: Table 1; for Potency at 1 μM F/O toxin / activation at 6.3 µM: % activation of mitophagy at 6.3 μM treatment of the compound; for activation at 1.6 µM / activation at 6.3 µM / EC50: Homo sapiens, HeLa; for activation at 1.6 µM / activation at 6.3 µM: 6 h, read-out: Potency at 1 μM F/O toxin*; for activation at 1.6 µM / Potency at 1 μM F/O toxin*: Table 2, % activation of mitophagy at 1.6 μM treatment of the compound
# Description: as §1, with “tag). Examples are shown in FIG. 1 through FIG. 13 below.” for “tag).”
# [3] = Table 3, read-out: Potency at 1 μM F/O toxin* (EC50 of mitophagy activation)
SMILES,Toxicity (% positive for DAPI take-up @ 50 μM) (HeLa MKYP cells [1]) [%],Potency at 1 μM F/O toxin (HeLa MKYP cells [2]) [%],Toxicity (% positive for DAPI takeup @ 50 μM) (HeLa MKYP cells [1]; Table 2) [%],Toxicity (% positive for DAPI takeup @ 50 μM) (HeLa MKYP cells [1]; Table 3) [%],other results
CCCCNc1ncnc2[nH]c(C(F)(F)F)cc12 [Compound 1],4.6,42.3,–,–,–
CCCCNc1ncnc2[nH]c(-c3ccnn3C)cc12 [Compound 2],94.6,15.0,–,–,–
CCCCNc1ncnc2[nH]c(C(OCC)C(F)(F)F)cc12 (stereo not drawn) [Compound 3],15.8,25.9,–,–,–
CCCCNc1ncnc2[nH]c(CC(F)(F)F)cc12 [Compound 4],24.8,13.9,–,–,–
CCCCNc1ncnc2[nH]c(C(OCC)C(F)(F)F)cc12 (stereo not drawn) [Compound 5],47.4,17.9,–,–,–
CCCCNc1ncnc2[nH]c(-c3ccccc3)cc12 [Compound 6],90.0,52.0,–,–,–
CCCCNc1ncnc2[nH]c(CC)cc12 [Compound 7],93.4,14.0,–,–,–
CCCCNc1ncnc2[nH]c(C)cc12 [Compound 8],15.4,43.4,–,–,–
FC(F)(F)c1cc2c(NCc3ccccc3)ncnc2[nH]1 [Compound 9],–,–,50.4,–,activation at 1.6 µM (HeLa MKYP cells [2]): 35.1%
CC(C)(Nc1ncnc2[nH]c(C(F)(F)F)cc12)c1ccccc1 [Compound 10],–,–,5.6,–,activation at 1.6 µM (HeLa MKYP cells [2]): 17%
FC(F)(F)c1cc2c(NC3(c4ccccc4)CC3)ncnc2[nH]1 [Compound 11],–,–,80.5,–,activation at 1.6 µM (HeLa MKYP cells [2]): 20.8%
CC(Nc1ncnc2[nH]c(C(F)(F)F)cc12)c1ccccc1 (stereo not drawn) [Compound 12],–,–,2.4,–,activation at 1.6 µM (HeLa MKYP cells [2]): 88.4%
FC(F)(F)c1cc2c(NC3COc4ccccc43)ncnc2[nH]1 (stereo not drawn) [Compound 13],–,–,39.7,–,activation at 1.6 µM (HeLa MKYP cells [2]): 52.5%
COc1ccc2c(c1)CCCC2Nc1ncnc2[nH]c(C(F)(F)F)cc12 (stereo not drawn) [Compound 14],–,–,95.5,–,activation at 1.6 µM (HeLa MKYP cells [2]): 29.8%
FC(F)(F)c1cc2c(NC3CCCc4ccccc43)ncnc2[nH]1 (stereo not drawn) [Compound 16],–,–,4.5,–,Potency at 1 μM F/O toxin* (HeLa MKYP cells [2]): 10.1%
FC(F)(F)c1cc2c(NC3CCc4ccccc43)ncnc2[nH]1 (stereo not drawn) [Compound 17],–,–,2.3,–,activation at 1.6 µM (HeLa MKYP cells [2]): 14.8%
FC(F)(F)c1cc2c(NC3CCc4ccccc43)ncnc2[nH]1 (stereo not drawn) [Compound 18],–,–,1.7,–,Potency at 1 μM F/O toxin* (HeLa MKYP cells [2]): 14.3%
FC(F)(F)c1cc2c(NCc3cncnc3)ncnc2[nH]1 [Compound 19],–,–,–,–,Toxicity (% positive for DAPI takeup @ 50 μM) (HeLa MKYP cells [1]; human): 1.7%; activation at 6.3 µM (HeLa MKYP cells [2]; Table 3): 50.3%
FC(F)(F)c1cc2c(NCc3ccncn3)ncnc2[nH]1 [Compound 20],–,–,–,1.5,activation at 6.3 µM (HeLa MKYP cells [2]; Table 3): 7.9%
FC(F)(F)c1cc2c(NCc3cnccn3)ncnc2[nH]1 [Compound 21],–,–,–,0.9,activation at 6.3 µM (HeLa MKYP cells [2]; Table 3): 9.1%
COc1ncccc1CNc1ncnc2[nH]c(C(F)(F)F)cc12 [Compound 22],–,–,–,7.6,activation at 6.3 µM (HeLa MKYP cells [2]; Table 3): 18.5%
Fc1cccc(CNc2ncnc3[nH]c(C(F)(F)F)cc23)c1Cl [Compound 23],–,–,–,4.5,activation at 6.3 µM (HeLa MKYP cells [2]; Table 3): 87.7%
Fc1cc(Cl)cc(CNc2ncnc3[nH]c(C(F)(F)F)cc23)c1 [Compound 24],–,–,–,4.8,activation at 6.3 µM (HeLa MKYP cells [2]; Table 3): 51.2%
FC(F)(F)c1cc2c(NCc3cccc(Cl)c3)ncnc2[nH]1 [Compound 25],–,–,–,20.3,activation at 6.3 µM (HeLa MKYP cells [2]; Table 3): 49.9%
CC(C)[C@@H](Nc1ncnc2[nH]c(C(F)(F)F)cc12)c1cncnc1 [Compound 26],–,–,–,6.8,"Toxicity (% positive for DAPI take-up at 50 μM)* (HeLa MKYP cells [1]; Table 3 Supplement A): 6.82%; EC50 (HeLa MKYP cells [2]; [3]): 6.9 µM; EC50 (HeLa MKYP cells [2]; Table 3 Supplement A, as measured in Table 3, read-out: Potency (EC50 Max Mitophagy) (μM)*): 6.85 µM"
CCCCNc1ncnc2[nH]c(C3CC3)nc12 [Compound 29],–,–,–,16.2,EC50 (HeLa MKYP cells [2]; [3]): 18.8 µM
